Entries after “also recorded” stand apart in the source; their conditions may differ.
Columns and labels:
CCR3 receptor = molecular target: T1, CCR3 receptor (Homo sapiens, UniProt P51677); assay: CCR3 receptor internalization biomarker assay (FACS, whole blood); format: cell-based
T1 sequence (P51677 1-355): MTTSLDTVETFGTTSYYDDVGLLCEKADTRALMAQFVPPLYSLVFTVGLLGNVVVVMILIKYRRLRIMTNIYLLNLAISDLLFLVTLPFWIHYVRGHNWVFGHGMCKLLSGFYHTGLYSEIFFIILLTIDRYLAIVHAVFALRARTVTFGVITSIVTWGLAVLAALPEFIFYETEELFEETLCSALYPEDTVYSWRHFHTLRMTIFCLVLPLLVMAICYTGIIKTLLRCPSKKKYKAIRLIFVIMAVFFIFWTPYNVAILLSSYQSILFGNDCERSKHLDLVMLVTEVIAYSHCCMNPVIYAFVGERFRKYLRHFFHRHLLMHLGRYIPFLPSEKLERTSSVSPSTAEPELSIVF
Method: The CCR3 receptor internalization assay is FACS-based and uses human Eotaxin-1 (PreProTech, Rocky Hill, N.J.) and an anti-human CCR3 antibody labeled with APC (R&D Systems, Minneapolis, Minn.) or isotype control IgG2A antibody to monitor CCR3 receptor internalization in human eosinophils induced by human eotaxin-1 compared to naïve eosinophils. The median APC fluorescent intensity units for each sample were determined along with the mean of each set of sample triplicates.

aged C57Bl/6 mice [1] = assay: Y-maze test in aged mice; format: in vivo
Method: (§1) A large Y-maze test assesses short-term memory of the familiarity of a specific context. Mice are brought to the experimental room for at least 30 min of acclimation to the experimental room conditions (dim lighting) prior to testing. For the initial training trial, the mouse is placed at the end of one arm of a large Y-maze designated “start arm” (arm length: 15 inches). The third arm of the maze is blocked off, allowing the mouse to explore two of the three arms freely (“start arm” and “familiar arm”) for 5 min. Each arm contains spatial cues. One hour later, the mouse is placed back into the maze in the “start arm” and allowed to explore all three arms with the third arm unblocked (“novel arm”). Movements in and out of each arm are tracked using automated tracking software (CleverSys). Testing is performed under dim lighting, and the apparatus is cleaned with 70% ethanol between trials.
Two-month-old or 18-month-old C57Bl/6 mice were dosed with either IgG antibody control by IP injection or Compound 1 subcutaneously by Alzet osmotic pump for either 2 or 4 weeks. During the last week of treatment, mice were subjected to behavior testing prior to perfusion on the last day of treatment. All mice received 5 consecutive days of BrdU injection at 150 mg/kg IP immediately prior to treatment start.
Three-month-old or 16.5-month-old C57Bl/6 mice were dosed with either vehicle control or Compound 1 subcutaneously by Alzet osmotic pump for 4 weeks. During the last week of treatment, mice were subjected to behavior testing prior to perfusion on the last day of treatment. All mice received 5 consecutive days of BrdU injection at 150 mg/kg IP immediately prior to treatment start.
23-month-old C57Bl/6 mice were dosed with either vehicle control or Compound 1 by oral gavage twice daily for 19 days. After 11 days of treatment, mice were subjected to Y maze testing.
(§2) 23-month-old C57Bl/6 mice were dosed with either vehicle control or Compound 1 subcutaneously twice daily for 21 days. Three weeks later, mice were subjected to behavior testing, and sacrificed the day following the last behavior test.

aged C57Bl/6 mice [2] = assay: Open Field test in aged mice; format: in vivo; conditions: 23-month-old mice; 30 mg/kg SQ BID 21 days, tested three weeks later
Method: Open Field is used to evaluate general locomotor activity and exploratory behavior in a novel environment. Mice are brought to the experimental room for at least 30 min for acclimation to the experimental room conditions (dim lighting) prior to testing. The testing arena consists of a 50 cm×50 cm square arena. Mice are placed in the center of an arena and tracked for 15 minutes. Time spent in the peripheral and centers zones is analyzed, along with rearing behavior. 70% ethanol is used to clean all surfaces between trials.
as §2

[3] = test system: inflammatory cytokines TNFa, IL6, IL1beta, IL5, IL17; assay: Luminex assay of inflammatory cytokines in plasma of aged mice; format: in vivo, C57Bl/6 mice; conditions: 23-month-old mice, 30 mg/kg SQ BID 21 days
Method: Panels of circulating cytokines from mouse plasma were analyzed by Luminex. Luminex Assay Service performed by Eve Technologies (Calgary, Alberta, Canada).
as §2
Treatment Groups: • Treatment Group 1b, Vehicle treatment: Aged C57Bl/6 mice (n=9), aged 23 months, received twice daily (BID) subcutaneous (SQ) treatment of vehicle solution for 21 days. • Treatment Group 4, Compound 1 treatment: Aged C57Bl/6 mice (n=17), aged 23 months, received twice daily (BID) subcutaneous (SQ) treatment of Compound 1, 30 mg/kg, for 21 days.

[4] = test system: CD68+ activated microglia; assay: IHC of CD68+ activated microglia in hippocampus of aged mice; format: in vivo, C57Bl/6 mice; conditions: 23-month-old mice, 30 mg/kg SQ BID 21 days
Text: Mice were taken down on the day following the end of behavior testing. Anesthesia was induced by 2,2,2-tribromoethanol and mice were subsequently perfused with 0.9% saline trans-cardially. The brains were dissected and cut sagitally in two even halves. One half was snap frozen for later use in dry ice, and the other was fixed in 4% paraformaldehyde in PBS for use in immunohistochemistry. After two days of fixation, the hemibrains were transferred to a 30% sucrose in PBS solution and changed after two days. Hemibrains were sectioned at 30 um on a microtome at −22° C. Brain sections were stored in cryoprotectant media at −20° C. until needed for staining. Blocking was done on free floating sections in the appropriate serum at 10% serum in PBST 0.5%. Primary antibodies were incubated overnight at 4 C. For light microscopy, the following antibodies were used in the given concentrations: DCX, 1:200, Santa Cruz BioTech, CD68, 1:1000. AbD Serotec. Secondary biotinylated antibodies were applied the next day at a concentration of 1:300. Staining visualization was achieved by reaction with the ABC kit (Vector) and diaminobenzidine (Sigma). Dehydration of the mounted slides was achieved using ethanol and xylene dips. Images were acquired on a Leica light microscope at 5× magnification.
23-month-old C57Bl/6 mice were dosed with either vehicle control or Compound 1 subcutaneously twice daily for 21 days. […]

[5] = test system: three-month-old C57 mice treated with LPS; assay: Y maze test in mice given daily LPS; format: in vivo; conditions: 3-month-old mice; daily LPS 0.5 mg/kg IP; 30 mg/kg PO BID, after 3 weeks
Method: as §1
Three-month-old C57 mice were given daily doses of lipopolysaccharide (LPS) 0.5 mg/kg IP to induce inflammation and treated with Compound 1 for up to 4 weeks. […]

[6] = 23-month-old mice, 30 mg/kg SQ BID 21 days, tested three weeks later
[7] = 23-month-old mice, 30 mg/kg oral gavage BID, tested after 11 days

For `Cc1cc(C(=O)N(C)C)cc(NC(=O)[C@H]2CCC(=O)N2C2CCN(Cc3ccc(Cl)c(C)c3)CC2)n1` [Compound 1], the IC50 (CCR3 receptor) was < 100 nM, the “inhibition of CCR3 receptor internalization versus plasma Compound 1 concentration” value (CCR3 receptor; whole blood from humans treated with Compound 1, incubated with human recombinant eotaxin-1) was “robust concentration-dependent effect” and the “cognitive performance in the cued Y-maze” value (aged C57Bl/6 mice [1]; 16.5-month-old mice, four-week subcutaneous dosing by pump) was “improved cognitive performance”. The “performance in the cued Y-maze” value (aged C57Bl/6 mice [1]; 18-month-old mice, low or high infusion for 2 or 4 weeks) was “improvement in the cued Y-maze”, the “Y-maze duration of time spent in the novel arm” value (aged C57Bl/6 mice [1]; [6]) was “exhibited intact memory for the novel arm” and the “Y-maze number of visits to the novel arm” value (aged C57Bl/6 mice [1]; [6]) was “exhibited intact memory for the novel arm”. The “memory in the Y-maze” value (aged C57Bl/6 mice [1]; [6]) was “significantly improved memory”, the “velocity during the Y-maze test” value (aged C57Bl/6 mice [1]; [6]) was “significantly increased the velocity” and the “Y-maze number of visits to the novel arm” value (aged C57Bl/6 mice [1]; [7]) was “exhibited intact memory for the novel arm”. For the same compound, the “distance travelled during the Y-maze test” value (aged C57Bl/6 mice [1]; [7]) was “significantly increased the distance travelled”, the “memory in the Y-maze” value (aged C57Bl/6 mice [1]; [7]) was “significantly improved memory” and the “Open Field distance travelled” value (aged C57Bl/6 mice [2]) was “strong trends towards improvement”. For the same compound, the “Open Field velocity” value (aged C57Bl/6 mice [2]) was “strong trends towards improvement”, the “plasma IL1beta level” value [3] was “strong trends in decrease; also recorded: trend lower” and the “plasma IL5 level” value [3] was “strong trends in decrease; also recorded: trend lower”. The “plasma IL6 level” value [3] was “strong trends in decrease; also recorded: trend lower”, the “plasma IL17 level” value [3] was “strong trends in decrease; also recorded: trend lower” and the “plasma TNFa level” value [3] was “strong trends in decrease; also recorded: trend lower”. The “CD68+ activated microglia in the hippocampus” value [4] was “strong trend towards decreased microgliosis; also recorded: trend lower” and the “Y maze preference for the novel arm” value [5] was “showed a significant preference for the novel arm”.

— patent publication US11382907B2, “Methods and compositions for treating aging-associated impairments using CCR3-inhibitors” (Alkahest, Inc., priority 2017, dated 2022)
